29 molecules from patent publication US7884117B2, “Carbonylamino pyrrolopyrazoles, potent kinase inhibitors” (Pfizer Inc., priority 2005, dated 2011) can be followed below.

The structures appear in SMILES notation.

For the first test, the target named is T1, PAK4 Kinase domain (PAK4 KD) (Homo sapiens, UniProt O96013).
T1 construct: Cloning, expression, and purification of recombinant PAK4 Kinase domain (PAK4 KD); His tag (pET28a(+)/pET24a(+), Ni-NTA purification) (N, cleaved yes); GST (pGST4.5, glutathione column) (N, cleaved yes); made in house; host or cells: E. coli BL21(DE3)
T1 sequence (O96013 321-572 limits assumed): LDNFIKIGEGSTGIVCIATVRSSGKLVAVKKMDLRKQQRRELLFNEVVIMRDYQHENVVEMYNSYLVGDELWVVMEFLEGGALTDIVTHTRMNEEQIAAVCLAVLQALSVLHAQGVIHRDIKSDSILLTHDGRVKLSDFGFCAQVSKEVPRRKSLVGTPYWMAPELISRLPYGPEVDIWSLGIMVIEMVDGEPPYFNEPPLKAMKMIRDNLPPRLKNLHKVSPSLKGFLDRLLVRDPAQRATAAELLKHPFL
Put plainly: PAK4 kinase domain enzymatic assay (PK/LDH-coupled, Ki). Format: biochemical.
Conditions: not given
In turn, `CN(C)C[C@@H](NC(=O)N1Cc2c(NC(=O)c3cnccn3)n[nH]c2C1(C)C)c1ccccc1` [Example 111, (S)-N-(2-(dimethylamino)-1-phenylethyl)-6,6-dimethyl-3-(pyrazine-2-carboxamido)pyrrolo[3,4-c]pyrazole-5 (1H,4H,6H)-carboxamide] registered an inhibition at 1 µM of 42%.

The test is the same for the next values; noted with them: PAK4 Kinase Domain.
Molecule `CC1(C)c2[nH]nc(NC(=O)c3ccccc3)c2CN1C(=O)N[C@@H]1C[C@H]1c1ccccc1` (relative stereo) [Example 58, 3-(benzoylamino)-6,6-dimethyl-N-[trans-2-phenylcyclopropyl]-4,6-dihydropyrrolo[3,4-c]pyrazole-5(1H)-carboxamide] showed a Ki of 96 nM.

Molecule `CC1(C)c2[nH]nc(NC(=O)Cc3ccc(F)cc3)c2CN1C(=O)N[C@@H]1C[C@H]1c1ccccc1` (relative stereo) [Example 70, 3-{[(4-fluorophenyl)acetyl]amino}-6,6-dimethyl-N-[trans-2-phenylcyclopropyl]-4,6-dihydropyrrolo[3,4-c]pyrazole-5(1H)-carboxamide] had a Ki of 223 nM. Against the preceding molecule, the Ki is about 2.3-fold higher.

On to `COc1ccc(CC(=O)Nc2n[nH]c3c2CN(C(=O)N[C@@H]2C[C@H]2c2ccccc2)C3(C)C)cc1` (relative stereo) [Example 101, 3-{[(4-methoxyphenyl)acetyl]amino}-6,6-dimethyl-N-[trans-2-phenylcyclopropyl]-4,6-dihydropyrrolo[3,4-c]pyrazole-5(1H)-carboxamide], for which the Ki is 113 nM.

For the molecule `CCC(C(=O)Nc1n[nH]c2c1CN(C(=O)N[C@@H]1C[C@H]1c1ccccc1)C2(C)C)c1ccccc1` (relative stereo) [Example 107, 6,6-dimethyl-3-[(2-phenylbutanoyl)amino]-N-[trans-2-phenylcyclopropyl]-4,6-dihydropyrrolo[3,4-c]pyrazole-5(1H)-carboxamide], the Ki was found to be 260 nM.

Turning to `COc1ccc(C(=O)Nc2n[nH]c3c2CN(C(=O)N[C@@H]2C[C@H]2c2ccccc2)C3(C)C)cc1OC` (relative stereo) [Example 109, 3-[(3,4-dimethoxybenzoyl)amino]-6,6-dimethyl-N-[trans-2-phenyl-cyclopropyl]-4,6-dihydropyrrolo[3,4-c]pyrazole-5(1H)-carboxamide], the Ki turned out to be 176 nM.

`COCC(=O)Nc1n[nH]c2c1CN(C(=O)O[C@H](CN(C)C)c1ccccc1)C2(C)C` [Example 14, (1S)-2-(dimethylamino)-1-phenylethyl 3-[(methoxyacetyl)amino]-6,6-dimethyl-4,6-dihydropyrrolo[3,4-c]pyrazole-5(1H)-carboxylate] gave a Ki of 356 nM.

As for `CN(C)C[C@@H](OC(=O)N1Cc2c(NC(=O)c3ccccc3F)n[nH]c2C1(C)C)C1CCCCC1` [Example 33, (1S)-1-cyclohexyl-2-(dimethylamino)ethyl 3-[(2-fluorobenzoyl)amino]-6,6-dimethyl-4,6-dihydropyrrolo[3,4-c]pyrazole-5(1H)-carboxylate], the affinity corresponds to a Ki of 220 nM. This Ki lies about 1.6-fold lower than the previous one.

Regarding `C[C@@H](CN(C)C)OC(=O)N1Cc2c(NC(=O)c3ccc(F)cc3F)n[nH]c2C1(C)C` [Example 37, (1S)-2-(dimethylamino)-1-methylethyl 3-[(2,4-difluorobenzoyl)amino]-6,6-dimethyl-4,6-dihydropyrrolo[3,4-c]pyrazole-5(1H)-carboxylate], affinity was put at a Ki of 564 nM. Against the preceding molecule, the Ki is about 2.6-fold higher.

The molecule `CN(C)[C@@H](COC(=O)N1Cc2c(NC(=O)c3ccc(F)cc3)n[nH]c2C1(C)C)c1ccccc1` [Example 41, (R)-2-(dimethylamino)-2-phenylethyl 3-[(4-fluorobenzoyl)amino]-6,6-dimethyl-4,6-dihydropyrrolo[3,4-c]pyrazole-5(1H)-carboxylate] showed a Ki of 786 nM. This Ki and that of the molecule before are within 1.5-fold of each other.

`CN(C)[C@H](COC(=O)N1Cc2c(NC(=O)c3ccc(F)cc3)n[nH]c2C1(C)C)c1ccccc1` [Example 42, (S)-2-(dimethylamino)-2-phenylethyl 3-[(4-fluorobenzoyl)amino]-6,6-dimethyl-4,6-dihydropyrrolo[3,4-c]pyrazole-5(1H)-carboxylate] displayed a Ki of 955 nM. The Ki values of the last two molecules are within 1.5-fold of each other.

Molecule `CC1(C)c2[nH]nc(NC(=O)c3ccccc3)c2CN1C(=O)NC1CCN(Cc2ccccc2)C1` (centres unmarked) [Example 59, 3-(benzoylamino)-N-(1-benzylpyrrolidin-3-yl)-6,6-dimethyl-4,6-dihydropyrrolo[3,4-c]pyrazole-5(1H)-carboxamide] yielded a Ki of 448 nM.

On to `CC1(C)c2[nH]nc(NC(=O)c3ccccc3)c2CN1C(=O)NC(CN1CCCC1)c1ccccc1` (centres unmarked) [Example 60, 3-(benzoylamino)-6,6-dimethyl-N-(1-phenyl-2-pyrrolidin-1-ylethyl)-4,6-dihydropyrrolo[3,4-c]pyrazole-5(1H)-carboxamide], for which the affinity, expressed as Ki, was 267 nM.

The molecule `CC1(C)c2[nH]nc(NC(=O)c3ccccc3)c2CN1C(=O)NC1CCCN(Cc2ccccc2)C1` (centres unmarked) [Example 61, 3-(benzoylamino)-N-(1-benzylpiperidin-3-yl)-6,6-dimethyl-4,6-dihydropyrrolo[3,4-c]pyrazole-5(1H)-carboxamide] showed an inhibitory constant (Ki) of 444 nM.

On to `CCC(NC(=O)N1Cc2c(NC(=O)c3ccccc3)n[nH]c2C1(C)C)c1ccccc1` (centres unmarked) [Example 62, 3-(benzoylamino)-6,6-dimethyl-N-(1-phenylpropyl)-4,6-dihydropyrrolo[3,4-c]pyrazole-5(1H)-carboxamide], for which the Ki was 308 nM.

The molecule `CC[C@@H](NC(=O)N1Cc2c(NC(=O)c3ccccc3)n[nH]c2C1(C)C)c1ccccc1` [Example 63, 3-(benzoylamino)-6,6-dimethyl-N-[(1R)-1-phenylpropyl]-4,6-dihydropyrrolo[3,4-c]pyrazole-5(1H)-carboxamide] had a Ki of 178 nM. This Ki is about 1.7-fold lower than that of the molecule before.

`CC1(C)c2[nH]nc(NC(=O)c3ccccc3)c2CN1C(=O)N[C@H](CN)c1ccccc1` [Example 64, N-[(1S)-2-amino-1-phenylethyl]-3-(benzoylamino)-6,6-dimethyl-4,6-dihydropyrrolo[3,4-c]pyrazole-5(1H)-carboxamide] gave a Ki of 19.3 nM.

With `CC1(C)c2[nH]nc(NC(=O)C3CCC3)c2CN1C(=O)N[C@@H]1CCN(Cc2ccccc2)C1` [Example 65, N-[(3R)-1-benzylpyrrolidin-3-yl]-3-[(cyclobutylcarbonyl)amino]-6,6-dimethyl-4,6-dihydropyrrolo[3,4-c]pyrazole-5(1H)-carboxamide], the Ki came out at 849 nM.

In turn, `CN(C)CC(CC(=O)N1Cc2c(NC(=O)c3ccc(F)cc3)n[nH]c2C1(C)C)c1ccccc1` (centres unmarked) [Example 66, N-{5-[4-(dimethylamino)-3-phenylbutanoyl]-6,6-dimethyl-1,4,5,6-tetrahydropyrrolo[3,4-c]pyrazol-3-yl}-4-fluorobenzamide] came in with a Ki of 556 nM.

The molecule `CN(C)CC(CC(=O)N1Cc2c(NC(=O)c3ccccc3)n[nH]c2C1(C)C)c1ccc(Cl)cc1` (centres unmarked) [Example 67, N-{5-[3-(4-chlorophenyl)-4-(dimethylamino)butanoyl]-6,6-dimethyl-1,4,5,6-tetrahydropyrrolo[3,4-c]pyrazol-3-yl}benzamide] displayed a Ki of 193 nM.

In turn, `CC(C)[C@@H](CN(C)C)OC(=O)N1Cc2c(NC(=O)c3ccccc3)n[nH]c2C1(C)C` [Example 74, (1S)-1-[(dimethylamino)methyl]-2-methylpropyl 3-(benzoylamino)-6,6-dimethyl-4,6-dihydropyrrolo[3,4-c]pyrazole-5(1H)-carboxylate] gave a Ki of 475 nM.

Regarding `CN(C)C[C@H](Cc1ccccc1)OC(=O)N1Cc2c(NC(=O)c3ccc(F)cc3)n[nH]c2C1(C)C` [Example 76, (1S)-1-benzyl-2-(dimethylamino)ethyl 3-[(4-fluorobenzoyl)amino]-6,6-dimethyl-4,6-dihydropyrrolo[3,4-c]pyrazole-5(1H)-carboxylate], the Ki was 468 nM.

Molecule `CC(C)C[C@@H](CN(C)C)OC(=O)N1Cc2c(NC(=O)c3ccccc3F)n[nH]c2C1(C)C` [Example 78, (1S)-1-[(dimethylamino)methyl]-3-methylbutyl 3-[(2-fluorobenzoyl)amino]-6,6-dimethyl-4,6-dihydropyrrolo[3,4-c]pyrazole-5(1H)-carboxylate] yielded an inhibition constant Ki of 284 nM.

`CN(C)C[C@@H](OC(=O)N1Cc2c(NC(=O)C3CCOCC3)n[nH]c2C1(C)C)c1ccccc1` [Example 91, (S)-2-(dimethylamino)-1-phenylethyl 6,6-dimethyl-3-(tetrahydro-2H-pyran-4-carboxamido)pyrrolo[3,4-c]pyrazole-5(1H,4H,6H)-carboxylate]: the Ki turned out to be 286 nM. The Ki values of the last two molecules are within 1.5-fold of each other.

`CC1(C)c2[nH]nc(NC(=O)c3ccc(F)cc3)c2CN1C(=O)NC(CN1CCOCC1)c1ccccc1` (centres unmarked) [Example 102, 3-[(4-fluorobenzoyl)amino]-6,6-dimethyl-N-(2-morpholin-4-yl-1-phenylethyl)-4,6-dihydropyrrolo[3,4-c]pyrazole-5(1H)-carboxamide] displayed a Ki of 621 nM.

With `CN(C)C[C@H](c1ccccc1)N(C)C(=O)N1Cc2c(NC(=O)c3ccccc3)n[nH]c2C1(C)C` [Example 103, 3-(benzoylamino)-N-[(1S)-2-(dimethylamino)-1-phenylethyl]-N,6,6-trimethyl-4,6-dihydropyrrolo[3,4-c]pyrazole-5(1H)-carboxamide], the Ki was 512 nM.

Turning to `CCc1cc(C(=O)Nc2n[nH]c3c2CN(C(=O)N[C@H](CN(C)C)c2ccccc2)C3(C)C)no1` [Example 105, (S)-N-(2-(dimethylamino)-1-phenyl)-3-(5-ethylisoxazole-3-carboxamido)-6,6-dimethylpyrrolo [3,4-c]pyrazole-5(1H,4H,6H)-carboxamide], the Ki was 121 nM. Compared with the last molecule, the Ki is about 4.2-fold lower.

In turn, `COc1cc(C(=O)Nc2n[nH]c3c2CN(C(=O)N[C@H](CN(C)C)c2ccccc2)C3(C)C)nc(OC)n1` [Example 106, (S)-3-(2,4-dimethoxypyrimidine-6-carboxamido)-N-(2-(dimethylamino)-1-phenylethyl)-6,6-dimethylpyrrolo[3,4-c]pyrazole-5(1H,4H,6H)-carboxamide] registered a Ki of 412 nM. This Ki is about 3.4-fold higher than that of the molecule before.

For the molecule `Cc1ccc(Cl)c(C(=O)Nc2n[nH]c3c2CN(C(=O)N[C@H](CN(C)C)c2ccccc2)C3(C)C)c1F` [Example 110, (S)-3-(6-chloro-2-fluoro-3-methylbenzamido)-N-(2-(dimethylamino)-1-phenylethyl)-6,6-dimethylpyrrolo[3,4-c]pyrazole-5(1H,4H,6H)-carboxamide], the affinity corresponds to a Ki of 81.7 nM.

In general, inhibition refers to the change of the read-out against control, counted positive when it falls. The Ki is a dissociation constant, usually derived from enzyme kinetics or from competition with a known ligand. Lower therefore signals higher affinity.
